Assay results published in patent US8552068B2, “Compositions and methods” (priority 2004, dated 2013).
“Also recorded” adds a separate entry of the source.

Legend:
[1] = system: Artificially-ventilated pentobarbital anesthetised rabbits; assay: Intravenous infusion of carrier solutions saturated with pure nitric oxide gas; exhaled NO and MAP; type: in vivo, rabbit
Experimental: Male white New Zealand rabbits were subjected to different doses of an intravenous infusion of NO-substituted solutions at different doses. Several physiological parameters were measured during the experiments, including NO concentration in mixed exhaled gas (FENO).
(§1) Different carrier media solutions (table 1) were dissolved and diluted with saline or water to obtain different concentration of the solutions. The solution was then placed in a gas-tight chamber and deoxygenated by means of helium bubbling for 10 min. The glass chamber was then gassed with pure nitric oxide gas for 3-4 min.
Data are given as mean±SEM.

[2] = Deoxygenation and exposure of carrier to NO gas (suitability for infusion); type: physicochemical
Experimental: as §1

[3] = system: artificially ventilated pentobarbital anaesthetized rabbits; assay: Effects of L-NAME infusion in anaesthetised rabbit; conditions: L-NAME 30 mg kg^−1 throughout 10 min
Source text: The experiments were approved by the local animal ethics committee. […] The animals were placed in supine position and tracheotomised just below the cricoid cartilage to allow mechanical ventilation using a tracheal cannula with an outer diameter of 5 mm. […] The ventilator was supplied with NO-free air using a charcoal filter (110×11 cm). […] The minute ventilation was 0.64-0.96 l min^−1. To the other side arm a pressure transducer (Statham, Hato Rey, Puerto Rico) was connected thus monitoring the insufflation pressure. The gas from the ventilator outlet was led through a switching valve to either of two beakers creating a positive end-expiratory pressure (PEEP) of 1-2 CmH2O or 4-5 cmhbO. During the experiment the gas flow was altered between the lower PEEP (9 min) and the higher PEEP (1 min) with an interval of totally 10 min. […] A heparinized catheter was inserted in the left common carotid artery for blood pressure and heart rate recordings (pressure transducer, Statham, Hato Rey, Puerto Rico), and arterial blood sampling. Another catheter was inserted in the right jugular vein for drug and muscle emboli administration. […] The muscles from the anterior compartment of the right lower hind limb were resected and placed in normal saline. Hereafter the animals were allowed a 30-60 min intervention-free period to obtain stable circulatory conditions and stable concentrations of expired NO.
NO concentration, in mixed exhaled gas, was continuously measured by means of a chemiluminescence based system (Niox, Aerocrine AB, Solna, Sweden) sampling at 100 ml min^−1 at the end of a mixing chamber connected to the ventilator exhaust. The full mixing of expired air thus measured on was intermittently checked by monitoring CO2 concentration in the same chamber. In a few experiments, gas for NO measurement was sampled from the trachea at the same point as for tidal CO2 measurements, thus yielding breath by breath NO concentrations. Calibration was done using certified NO standard gas in nitrogen (AGA Specialgas, Lidingδ, Sweden).
Blood samples were collected and analyzed for blood gases and acid-base status (ABL 300, Radiometer A/S, Copenhagen, Denmark) before L-NAME administration (group 2, time=−40 min) and shortly before muscle emboli challenge (group 1 and 2, time=−5 min). […] Arterial blood samples were collected and analysed at 10 min, 20 min, 40 min and 60 min after embolization. NO concentration in exhaled gas, end-tidal CO2, heart rate, mean arterial pressure and insufflation pressure was continuously monitored on a Grass Polygraph (Grass Instruments Co, Quincy, Mass., USA) during the experiments.

[4] = system: pulmonary embolism / venous gas embolism in NO-synthesis inhibited animals; assay: Treatment of embolism with NO in lipid emulsion in animals with inhibited NO production; type: in vivo; conditions: animal with inhibited NO production
Source text: It is contemplated that the NO infusion exerts vasodilatory effects in the pulmonary circulation, and/or mild vasodilatory effect on systemic circulation, and inhibits thrombocyte aggregation, or a combination of these effects.
The beneficial effects may be induction of vasodilation in the pulmonary vasculature, inhibition of aggregation of thrombocytes and/or minor vasodilation in the whole or parts of the systemic circulation, for example in the coronary circulation.

O=C[C@H](O)[C@@H](O)[C@@H](O)[C@H](O)CO [Galactose (60%), Galactose]
Exhaled NO, Change (%) ([1]; rabbit, in vivo): 41% | Exhaled NO, Change (absolute value) ([1]; rabbit, in vivo): 3.3 ppb | effect as NO carrier / NO delivering capacity (words) ([1]; rabbit, in vivo): noticeable effect

NCC(=O)O [Glycine]
Exhaled NO, Change (%) ([1]; infusion versus pre-infusion): −4% | Exhaled NO, Change (absolute value) ([1]; infusion versus pre-infusion): −0.6 ppb

PEG 400
effect as NO carrier / NO delivering capacity (words) ([1]; compared to the saline control): positive results

Fucoidan [Fucoidan (10%)]
effect as NO carrier / NO delivering capacity (words) ([1]; compared to the saline control): noticeable effect | Exhaled NO, Change (%) ([1]; infusion versus pre-infusion): 23% | Exhaled NO, Change (absolute value) ([1]; infusion versus pre-infusion): 4.7 ppb | MAP, Change (%) ([1]; infusion versus pre-infusion): −52% | MAP, Change (absolute value) ([1]; infusion versus pre-infusion): −55.9 cmH2O

O=C[C@H](O)[C@H](O)[C@H](O)CO [Ribose (50%), Ribose]
effect as NO carrier / NO delivering capacity (words) ([1]; compared to the saline control): noticeable effect | Exhaled NO, Change (%) ([1]; infusion versus pre-infusion): 77 ± 43% | Exhaled NO, Change (absolute value) ([1]; infusion versus pre-infusion): 8.2 ± 3.0 ppb

OCCCO [1,3-Propanediol]
effect as NO carrier / NO delivering capacity (words) ([1]; compared to the saline control): noticeable effect; also recorded: exhibited NO delivering capacity | Exhaled NO, Change (%) ([1]; infusion versus pre-infusion): 562% | Exhaled NO, Change (absolute value) ([1]; infusion versus pre-infusion): 78.2 ppb | MAP, Change (%) ([1]; infusion versus pre-infusion): −33% | MAP, Change (absolute value) ([1]; infusion versus pre-infusion): −38.2 cmH2O

CC(O)C(=O)O (stereo not drawn) [Lactate]
Exhaled NO, Change (%) ([1]; infusion versus pre-infusion): 0% | Exhaled NO, Change (absolute value) ([1]; infusion versus pre-infusion): 0 ppb | MAP, Change (%) ([1]; infusion versus pre-infusion): −2% | MAP, Change (absolute value) ([1]; infusion versus pre-infusion): −1.5 cmH2O

NC(CO)CO [2-Amino-1,3-propanediol]
Exhaled NO, Change (%) ([1]; infusion versus pre-infusion): 14% | Exhaled NO, Change (absolute value) ([1]; infusion versus pre-infusion): 2.4 ppb

CC(C)O [Carrier 2-PropanoI, 2-propanol]
effect as NO carrier / NO delivering capacity (words) ([1]; compared to the saline control): noticeable effect; also recorded: marked effect | Exhaled NO, Change (%) ([1]; infusion versus pre-infusion): 1400% | Exhaled NO, Change (absolute value) ([1]; infusion versus pre-infusion): 180 ppb | MAP, Change (%) ([1]; infusion versus pre-infusion): −15% | MAP, Change (absolute value) ([1]; infusion versus pre-infusion): −14.7 cmH2O

OC[C@@H](O)[C@@H](O)[C@H](O)[C@@H](O)CO [Sorbitol (60%), Sorbitol]
effect as NO carrier / NO delivering capacity (words) ([1]; compared to the saline control): noticeable effect | Exhaled NO, Change (%) ([1]; infusion versus pre-infusion): 60% | Exhaled NO, Change (absolute value) ([1]; infusion versus pre-infusion): 4.2 ppb

O=C(CO)[C@@H](O)[C@H](O)[C@H](O)CO [Fructose (60%), Fructose]
effect as NO carrier / NO delivering capacity (words) ([1]; compared to the saline control): noticeable effect | Exhaled NO, Change (%) ([1]; infusion versus pre-infusion): 88% | Exhaled NO, Change (absolute value) ([1]; infusion versus pre-infusion): 13.1 ppb

N[C@@H](CS)C(=O)O [L-cysteine]
behaviour when deoxygenated and exposed to NO gas [2]: a copious precipitate, unsuitable for infusion, was formed

O=CC[C@H](O)[C@H](O)CO [2-deoxy-Ribose]
effect as NO carrier / NO delivering capacity (words) ([1]; compared to the saline control): noticeable effect | Exhaled NO, Change (%) ([1]; infusion versus pre-infusion): 269% | Exhaled NO, Change (absolute value) ([1]; infusion versus pre-infusion): 32.7 ppb

CCO [Etanol]
Exhaled NO, Change (%) ([1]; infusion versus pre-infusion): 0% | Exhaled NO, Change (absolute value) ([1]; infusion versus pre-infusion): 0 ppb | MAP, Change (%) ([1]; infusion versus pre-infusion): 0% | MAP, Change (absolute value) ([1]; infusion versus pre-infusion): 0 cmH2O

Dextran [Dextran (15%)]
effect as NO carrier / NO delivering capacity (words) ([1]; compared to the saline control): noticeable effect; also recorded: positive results | Exhaled NO, Change (%) ([1]; infusion versus pre-infusion): 24% | Exhaled NO, Change (absolute value) ([1]; infusion versus pre-infusion): 2.8 ppb | MAP, Change (%) ([1]; infusion versus pre-infusion): −34% | MAP, Change (absolute value) ([1]; infusion versus pre-infusion): −45.5 cmH2O

C[C@H](N)C(=O)O [Alanine]
Exhaled NO, Change (%) ([1]; infusion versus pre-infusion): 0% | Exhaled NO, Change (absolute value) ([1]; infusion versus pre-infusion): 0 ppb

Polyethylene glycol
effect as NO carrier / NO delivering capacity (words) ([1]; compared to the saline control): noticeable effect | Exhaled NO, Change (%) ([1]; infusion versus pre-infusion): 61% | Exhaled NO, Change (absolute value) ([1]; infusion versus pre-infusion): 11.2 ppb | MAP, Change (%) ([1]; infusion versus pre-infusion): −19% | MAP, Change (absolute value) ([1]; infusion versus pre-infusion): −17.6 cmH2O

Inulin [Inulin (15%)]
effect as NO carrier / NO delivering capacity (words) ([1]; compared to the saline control): noticeable effect | Exhaled NO, Change (%) ([1]; infusion versus pre-infusion): 12% | Exhaled NO, Change (absolute value) ([1]; infusion versus pre-infusion): 1.8 ppb | MAP, Change (%) ([1]; infusion versus pre-infusion): −31% | MAP, Change (absolute value) ([1]; infusion versus pre-infusion): −26.5 cmH2O

N[C@H]1C(O)O[C@H](CO)[C@@H](O)[C@@H]1O (stereo partly drawn) [Glucosamine]
Exhaled NO, Change (%) ([1]; infusion versus pre-infusion): −9% | Exhaled NO, Change (absolute value) ([1]; infusion versus pre-infusion): −0.9 ppb

COC(=O)[C@@H](N)CCCNC(=N)N[N+](=O)[O-] [L-NAME, N^G-nitro-L-arginine methyl ester]
End-tidal CO2 and the relevant blood gas parameters [3]: normal | exhaled nitric oxide after L-NAME infusion [3]: < 1 ppb | heart rate (HR) after L-NAME infusion [3]: 258 beats min^−1 | systemic mean arterial blood pressure (MAP) after L-NAME infusion [3]: 128 cmHaO

CC(=O)N[C@@H](CS)C(=O)O [N-Acetylcysteine]
effect as NO carrier / NO delivering capacity (words) ([1]; compared to the saline control): noticeable effect | Exhaled NO, Change (%) ([1]; infusion versus pre-infusion): 19% | Exhaled NO, Change (absolute value) ([1]; infusion versus pre-infusion): 4.1 ppb

OC[C@@H](O)[C@@H](O)[C@H](O)[C@H](O)CO [Mannitol (20%), Mannitol]
effect as NO carrier / NO delivering capacity (words) ([1]; compared to the saline control): noticeable effect; also recorded: positive results | Exhaled NO, Change (%) ([1]; infusion versus pre-infusion): 55.6% | Exhaled NO, Change (absolute value) ([1]; infusion versus pre-infusion): 4.7 ppb

N=C(N)NCCC[C@H](N)C(=O)O [Arginine]
Exhaled NO, Change (%) ([1]; rabbit, in vivo): 3% | Exhaled NO, Change (absolute value) ([1]; rabbit, in vivo): 0.6 ppb

CC(O)CO (stereo not drawn) [1,2-Propanediol]
effect as NO carrier / NO delivering capacity (words) ([1]; compared to the saline control): noticeable effect; also recorded: exhibited NO delivering capacity | Exhaled NO, Change (%) ([1]; infusion versus pre-infusion): 217% | Exhaled NO, Change (absolute value) ([1]; infusion versus pre-infusion): 27.9 ppb | MAP, Change (%) ([1]; infusion versus pre-infusion): −16% | MAP, Change (absolute value) ([1]; infusion versus pre-infusion): −14.7 cmH2O

COC1O[C@H](CO)[C@@H](O)[C@H]1O (stereo partly drawn) [1-O-methyI-Ribose, 1-O-methyl-ribose]
effect as NO carrier / NO delivering capacity (words) ([1]; compared to the saline control): noticeable effect | Exhaled NO, Change (%) ([1]; infusion versus pre-infusion): 1284% | Exhaled NO, Change (absolute value) ([1]; infusion versus pre-infusion): 155.9 ppb | MAP, Change (%) ([1]; infusion versus pre-infusion): −50% | MAP, Change (absolute value) ([1]; infusion versus pre-infusion): −50.0 cmH2O

O=C(O)[C@H](O)[C@@H](O)[C@H](O[C@@H]1O[C@H](CO)[C@H](O)[C@H](O)[C@H]1O)[C@H](O)CO [Lactobionic acid]
effect as NO carrier / NO delivering capacity (words) ([1]; compared to the saline control): noticeable effect | Exhaled NO, Change (%) ([1]; infusion versus pre-infusion): 42% | Exhaled NO, Change (absolute value) ([1]; infusion versus pre-infusion): 8.3 ppb | MAP, Change (%) ([1]; infusion versus pre-infusion): −35% | MAP, Change (absolute value) ([1]; infusion versus pre-infusion): −32.4 cmH2O

NCC(O)CO (stereo not drawn) [3-Amino-1,2-propanediol]
Exhaled NO, Change (%) ([1]; infusion versus pre-infusion): 0% | Exhaled NO, Change (absolute value) ([1]; infusion versus pre-infusion): 0 ppb

OC[C@H]1O[C@@](CO)(O[C@H]2O[C@H](CO)[C@@H](O)[C@H](O)[C@H]2O)[C@@H](O)[C@@H]1O [Sucrose (60%), Sucrose]
effect as NO carrier / NO delivering capacity (words) ([1]; compared to the saline control): noticeable effect | Exhaled NO, Change (%) ([1]; infusion versus pre-infusion): 75% | Exhaled NO, Change (absolute value) ([1]; infusion versus pre-infusion): 11.2 ppb

CCCO [Carrier 1-Propanol, 1-Propanol]
Exhaled NO, Change (%) ([1]; infusion versus pre-infusion): 733% | MAP, Change (%) ([1]; infusion versus pre-infusion): −11%

O=C[C@H](O)[C@@H](O)[C@H](O)[C@H](O)C(=O)O [Glucuronic acid]
Exhaled NO, Change (%) ([1]; infusion versus pre-infusion): 0% | Exhaled NO, Change (absolute value) ([1]; infusion versus pre-infusion): 0 ppb

OCC(O)CO [Glycerol]
effect as NO carrier / NO delivering capacity (words) ([1]; compared to the saline control): act as a selective NO carrier | effect as NO carrier / NO delivering capacity (words) ([1]; compared to the saline control, listed as glycerol): noticeable effect | Exhaled NO, Change (%) ([1]; infusion versus pre-infusion): 475 ± 120% | Exhaled NO, Change (absolute value) ([1]; infusion versus pre-infusion): 63.3 ± 10.5 ppb

[N]=O [inhaled nitric oxide, nitric oxide]
treatment of venous gas embolism [4]: impossible to treat

Heparin [Heparin (15000 IU/ml, 10%)]
Exhaled NO, Change (%) ([1]; infusion versus pre-infusion): −5% | Exhaled NO, Change (absolute value) ([1]; infusion versus pre-infusion): −0.6 ppb | MAP, Change (%) ([1]; infusion versus pre-infusion): −12% | MAP, Change (absolute value) ([1]; infusion versus pre-infusion): −8.8 cmH2O

C[C@H](O)[C@@H](O)[C@@H](O)[C@H](O)C=O [Fucose]
effect as NO carrier / NO delivering capacity (words) ([1]; compared to the saline control): noticeable effect | Exhaled NO, Change (%) ([1]; infusion versus pre-infusion): 22% | Exhaled NO, Change (absolute value) ([1]; infusion versus pre-infusion): 4.1 ppb
